These results are taken from article PMC7177216, “A Novel Highly Sensitive Method for Measuring Inflammatory Neural-Derived APC Activity in Glial Cell Lines, Mouse Brain and Human CSF” (International Journal of Molecular Sciences, 2020).

For one test, the target named is T1, Bovine thrombin (Bos taurus, UniProt P00735).
T1 construct: gene F2
To be noted: 1 µM inhibitor; 20 µM substrate; 1 mM CaCl2, 50 mM Tris-HCl pH 8.0; 37 °C.

A further test addresses T2, bovine FXa (Bos taurus, UniProt P00743).
T2 construct: gene F10
The conditions noted are these: 1 µM inhibitor; 20 µM substrate; 1 mM CaCl2, 50 mM Tris-HCl pH 8.0; 37 °C.

T2 sequence (P00743 41-180): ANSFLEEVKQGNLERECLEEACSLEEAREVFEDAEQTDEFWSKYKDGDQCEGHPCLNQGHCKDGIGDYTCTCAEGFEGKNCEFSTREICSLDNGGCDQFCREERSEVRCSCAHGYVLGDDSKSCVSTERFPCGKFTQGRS
T2 sequence (P00743 234-492): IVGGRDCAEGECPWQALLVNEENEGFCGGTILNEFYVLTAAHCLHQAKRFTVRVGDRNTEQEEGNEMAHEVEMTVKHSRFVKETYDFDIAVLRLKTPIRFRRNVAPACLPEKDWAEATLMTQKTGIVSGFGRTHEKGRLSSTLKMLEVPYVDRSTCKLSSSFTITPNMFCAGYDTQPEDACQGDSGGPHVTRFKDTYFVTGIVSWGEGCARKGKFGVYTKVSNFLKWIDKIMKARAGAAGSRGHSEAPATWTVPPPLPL

Consider `N=C(N)c1ccc(CC(NC(=O)CNS(=O)(=O)c2ccc3ccccc3c2)C(=O)N2CCCCC2)cc1` (centres unmarked) [NAPAP], for which the “inhibition of cleavage of Pyr-Pro-Arg-AMC (fluorescence)” value is “cleavage of the substrate by thrombin was fully blocked by NAPAP” on Bovine thrombin; “FXa activity was fully blocked by apixaban and partially blocked by NAPAP” against bovine FXa.
